Test [1] concerns the target DmpX (SBP encoded by SPO2441) (Ruegeria pomeroyi, UniProt Q5LQP7). In words: biochemical. It counts as binding, Ruegeria pomeroyi DSS-3. Details: key to Dissociation constant (Kd): -: not detectable. The following applies: ITC; for binding affinity (in words): DMSP analogues compared to DMSP; for Dissociation constant (Kd): dash = not detectable. The source says:
(§1) The genes encoding SBPs from R. pomeroyi DSS-3 or R. nubinhibens ISM were amplified from the genome of R. pomeroyi DSS-3 or R. nubinhibens ISM by PCR using FastPfu DNA polymerase (TransGen Biotech, China). The dmpX homologue from P. sp. strain HTCC7211 (locus tag HTCC7211_00013840) was synthesized by the Beijing Genomics Institute (China). The related genes were then cloned into the NdeI/XhoI restriction sites of the pET-22b vector (Novagen, Germany) with a C-terminal His tag. Point mutations in DmpX were introduced using the PCR-based method and verified by DNA sequencing. The SBPs and corresponding mutant forms were produced in E. coli BL21 (DE3). The cells were cultured in the LB medium with 0.1 mg/ml ampicillin at 37 °C to an OD600 of 0.8–1.0 and then induced at 18 °C for 16 h with 0.5 mM isopropyl-β-D-thiogalactopyranoside (IPTG). After induction, cells were collected by centrifugation, resuspended in the lysis buffer (50 mM Tris-HCl, 100 mM NaCl, 0.5% glycerol, pH 8.0), and lysed by a pressure crusher. The proteins were first purified by affinity chromatography on a Ni^2+-NTA column (GE Healthcare, US), and then fractionated by gel filtration on a Superdex G75 column (GE healthcare, US).
(§2) Isothermal titration calorimetry (ITC) measurements were performed at 25 °C using a MicroCal iTC200 system (GE Healthcare, US) or MicroCal PEAQ-ITC system (Malvern Panalytical, UK). The sample cell was loaded with 280 μl of protein sample (30–100 μM), and the reference cell contained distilled water. The syringe was filled with 40 μl of substrates (100 μM–1 mM). The proteins and substrates were kept in the same buffer containing 10 mM Tris-HCl (pH 8.0) and 100 mM NaCl.

The target of another test is DmpX^7211 (Candidatus Pelagibacter sp. HTCC7211, UniProt B6BQI1). The experiment in a line: ITC titration of substrates into recombinant DmpX^7211. Details: key: -: not detectable. The settings on record: dash = not detectable. In kind it is binding.
Chain of DmpX^7211 (B6BQI1 27-337 limits assumed): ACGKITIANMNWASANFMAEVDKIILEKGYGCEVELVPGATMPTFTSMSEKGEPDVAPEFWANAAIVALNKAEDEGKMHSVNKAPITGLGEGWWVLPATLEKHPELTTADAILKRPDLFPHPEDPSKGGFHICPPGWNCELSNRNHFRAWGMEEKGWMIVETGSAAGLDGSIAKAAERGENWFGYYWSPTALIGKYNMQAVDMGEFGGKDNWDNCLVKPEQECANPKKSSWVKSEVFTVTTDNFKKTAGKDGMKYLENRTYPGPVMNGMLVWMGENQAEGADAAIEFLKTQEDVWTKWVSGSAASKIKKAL
Description: as §1, §2
In general terms: ITC needs no label: the signal is the heat of the interaction.

The next test deals with RnDmpX (Roseovarius nubinhibens, UniProt A3SME7). In words: ITC titration of DMSP into recombinant RnDmpX. It counts as binding, Roseovarius nubinhibens ISM.
Chain of RnDmpX (A3SME7 entry or part of it): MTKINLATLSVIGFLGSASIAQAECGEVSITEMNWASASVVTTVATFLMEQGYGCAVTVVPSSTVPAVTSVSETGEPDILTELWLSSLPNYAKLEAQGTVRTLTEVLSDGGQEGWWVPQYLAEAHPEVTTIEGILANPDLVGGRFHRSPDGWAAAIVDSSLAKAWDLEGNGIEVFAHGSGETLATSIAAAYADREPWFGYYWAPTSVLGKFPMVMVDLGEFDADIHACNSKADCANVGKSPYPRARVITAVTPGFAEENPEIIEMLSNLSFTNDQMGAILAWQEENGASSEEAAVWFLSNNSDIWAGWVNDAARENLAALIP
Description: as §1
(§3) Isothermal titration calorimetry (ITC) measurements were performed at 25 °C using a MicroCal iTC200 system (GE Healthcare, US) or MicroCal PEAQ-ITC system (Malvern Panalytical, UK). […]

The test system of the next test is RnDmpX Tyr200Phe mutant. In words: ITC titration of DMSP into RnDmpX Tyr200Phe mutant. It counts as binding, Roseovarius nubinhibens ISM. The following applies: Tyr200 mutated to Phe.
Description: as §1, §3

The subject of test [2] is TmoX (encoded by SPO1548). Details: method as in PMID 24550299, PMID 26283766. The following applies: cited from earlier work.
For the next test, the system named is RnDmpX Tyr200Ala mutant. In words: ITC titration of DMSP into RnDmpX Tyr200Ala mutant. It counts as binding, Roseovarius nubinhibens ISM. The settings on record: Tyr200 mutated to Ala.
Description: as §1, §3

For another test, the system named is SBP encoded by SPO1131. In words: ITC titration of DMSP into recombinant SBP encoded by SPO1131. It counts as binding, Ruegeria pomeroyi DSS-3.
Description: as §1, §3

Another test has as its system SBP encoded by SPOA0231. In words: ITC titration of DMSP into recombinant SBP encoded by SPOA0231. It counts as binding, Ruegeria pomeroyi DSS-3.
Description: as §1, §3

The test system of test [3] is R. pomeroyi DSS-3 ΔdmpXWV::Gm mutant. In words: Uptake of 14C-labeled DMSP, ΔdmpXWV::Gm mutant. In kind it is cell-based, Ruegeria pomeroyi DSS-3. The following applies: for Uptake rate: ΔdmpXWV::Gm, 5 min, 30 °C, mean ± S.D. n = 3.
Description: Bacterial cell numbers used for normalization of uptake rates were determined by flow cytometry [41]. 1 ml culture was fixed with a final concentration of 0.5% (vol/vol) glutaraldehyde (Electron microscopy grade, BDH, AE) for 30 min at 4 °C, snap frozen in liquid nitrogen, and stored at –80 °C. Samples were thawed at 37 °C for 5 min, stained with SYBR gold (Invitrogen, US) (final concentration 10^-4 of commercial stock) for 10 min at 60 °C in the dark. 75 to 200-fold sample dilutions in sterile TE buffer (10 mM Tris-HCl, 1 mM EDTA, pH 8.0) were counted in analytical triplicates on a CytoFLEX flow cytometer (Beckman Coulter, UK) at a flow rate of 30 µl min^-1 for 60 sec. The instrument was equipped with a 50 mW 488 nm solid-state diode laser with standard filters and the discriminator set to 525 nm (green fluorescence) (Fig. S1).
A further test concerns R. pomeroyi DSS-3 WT. The experiment in a line: Uptake of 14C-labeled DMSP, wild-type. It counts as cell-based, Ruegeria pomeroyi DSS-3. The settings on record: 5 min, 30 °C, mean ± S.D. n = 3. Here is the method: (§4) Triplicates of 1 µl ^14C:^12C-DMSP in 3 ml scintillation fluid (EcoLume Liquid Scintillation Cocktail, MP Biomedical, US) were measured on a liquid scintillation analyzer (Tri-Carb 2800TR, Perkin Elmer, UK) after overnight equilibration.
(§5) A single colony of R. pomeroyi DSS-3 WT, ΔdmpXWV mutant, or complemented ΔdmpXWV mutant was inoculated into 5 ml of marine broth medium (MB) and grown overnight at 30 °C under constant shaking (170 rpm). 1 ml preculture was inoculated into 50 ml MB and grown at 30 °C with shaking (130 rpm) until an OD540 of ~0.5-0.7 was reached, then used for DMSP uptake assays.
(§6) Due to a relatively low radiochemical and mid-millimolar range molar concentration of the ^14C:^12C-DMSP stock, we could not conduct uptake kinetics experiments. Instead, we used three DMSP concentrations (50, 150, and 300 µM) and added them to 3 ml of cultures in biological triplicates. Cells were incubated at 30 °C with shaking (130 rpm) for 5 min, filtered onto 0.2 µm pore size Supor filters (∅ 25 mm, Pall Corporation, US), and washed 3x with 1 ml MB medium. Wet filters were transferred to 6 ml scintillation vials and 3 ml EcoLume Liquid Scintillation Cocktail added. After equilibration overnight, samples were measured on a Tri-Carb 2800TR liquid scintillation analyzer. Cells fixed in 2% (vol/vol) freshly prepared paraformaldehyde solution for >15 min at 4 °C in the dark prior to radioisotope addition were used for background correction. Uptake rates were normalized by cell number.
(§7) Bacterial cell numbers used for normalization of uptake rates were determined by flow cytometry. […] 75 to 200-fold sample dilutions in sterile TE buffer (10 mM Tris-HCl, 1 mM EDTA, pH 8.0) were counted in analytical triplicates on a CytoFLEX flow cytometer (Beckman Coulter, UK) at a flow rate of 30 µl min^-1 for 60 sec. The instrument was equipped with a 50 mW 488 nm solid-state diode laser with standard filters and the discriminator set to 525 nm (green fluorescence) (Fig. S1).

In test [4] the test system is R. pomeroyi DSS-3 complemented mutant ΔdmpXWV::Gm. The experiment in a line: Uptake of 14C-labeled DMSP, complemented ΔdmpXWV::Gm mutant. In kind it is cell-based, Ruegeria pomeroyi DSS-3. The following applies: for Uptake rate: complemented mutant ΔdmpXWV::Gm, 5 min, 30 °C, mean ± S.D. n = 3.
Description: To create the ΔdmpXWV knockout mutant regions of homology at the 5′ and 3′ ends of dmpXWV were amplified, alongside the gentamicin cassette from the p34s-Gm plasmid. Amplified DNA fragments were assembled into linearised pk18mobsacB using the HiFi assembly kit (New England Biolabs) according to the manufacturer’s instructions. To construct the complementation plasmid, dmpXWV was cloned into linearised pBBR1McS-km using the HiFi assembly kit. Plasmids were electroporated into competent Escherichia coli S17.1 λpir and conjugated into R. pomeroyi DSS-3. The knockout mutant was selected onto minimal media plates containing gentamicin (10 µg/ml), with resultant colonies screened for kanamycin resistance. Kanamycin-sensitive clones were PCR screened and products sequenced to confirm a double crossover. The complemented mutant strain was selected on MB plates containing gentamicin (10 µg/ml) and kanamycin (80 µg/ml), and colonies confirmed by PCR screening and sequencing.
as §4, §5
as §6, with “Cells fixed in 2% (vol/vol) freshly prepared paraformaldehyde solution for >15 min at 4 °C in the dark prior to radioisotope addition were used for background correction. Uptake rates were normalized by cell number.” left out
as §7

Each structure is given as a SMILES string.

Chain of DmpX (SBP encoded by SPO2441) (Q5LQP7 entry or part of it): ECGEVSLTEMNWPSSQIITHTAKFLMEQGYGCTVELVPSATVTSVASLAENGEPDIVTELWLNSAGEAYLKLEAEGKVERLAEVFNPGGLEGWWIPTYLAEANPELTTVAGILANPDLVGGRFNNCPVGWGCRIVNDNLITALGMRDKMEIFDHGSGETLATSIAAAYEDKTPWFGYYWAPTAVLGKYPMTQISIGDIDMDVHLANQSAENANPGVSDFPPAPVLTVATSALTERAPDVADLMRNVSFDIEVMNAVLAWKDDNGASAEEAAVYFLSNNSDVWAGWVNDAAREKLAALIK

For the compound `C[N+](C)(C)CC(O)CC(=O)[O-]` (centres unmarked) [carnitine], in [1], the “binding affinity (in words)” value was “little binding affinity”. For the same compound, the “Dissociation constant (Kd)” value (in test [1] (SPO2441 (DmpX)); on DmpX^7211) was “-” throughout.
Regarding `C[N+](C)(C)CC(=O)O` [GBT, glycine betaine], the “binding affinity (in words)” value in [1] is listed as “little binding affinity”. For the same compound, the “Dissociation constant (Kd)” value (in test [1] (SPO2441 (DmpX)); at DmpX^7211) was “-” each time.
`C[N+](C)(C)CCO` [choline]: the “binding affinity (in words)” value in test [1] is given as “little binding affinity”. Also, in test [1] (SPO2441 (DmpX)), the “Dissociation constant (Kd)” value is recorded as “-”.
Regarding `C[S+](C)CCC(=O)[O-]` [DMSP, Dimethylsulfoniopropionate], the Kd in test [1] (25 °C, 10 mM Tris-HCl pH 8.0, 100 mM NaCl, SPO2441 (DmpX), read-out: Dissociation constant (Kd)) turned out to be 1100 nM; on RnDmpX, 474 nM. Moreover, the “binding affinity for DMSP (in words)” value in the test on RnDmpX Tyr200Phe mutant and in the test with RnDmpX Tyr200Ala mutant was “abolished” throughout. Moreover, the “binding affinity to DMSP (in words)” value in test [2] is recorded as “does not show any binding affinity”. In addition, the “high binding affinity for DMSP (in words)” value in the test with SBP encoded by SPO1131 and with SBP encoded by SPOA0231 was “did not” each time.
With `C[N+](C)(C)[O-]` [TMAO, trimethylamine N-oxide], the “binding affinity (in words)” value in test [1] was “little binding affinity”. The “Dissociation constant (Kd)” value (in test [1] (SPO2441 (DmpX)); on DmpX^7211) was “-” throughout.
As for `C[S+](C)CCC(=O)[O-]` [^14C-DMSP, [1-^14C]DMSP], the “reduction of uptake in the mutant in comparison to the wild-type” value in test [3] (50 μM DMSP, p < 0.001) is recorded as ~ 5 times. In addition, in test [3] (300 μM DMSP, p < 0.001), the “decrease of uptake in the mutant in comparison to the wild-type” value is ~ 3 times. Further, the Uptake rate in test [3] (DMSP concentration 50 µM) turned out to be 0.522 ± 0.040 fmol cell^-1 min^-1; in test [3] (DMSP concentration 300 µM), 1.344 ± 0.150 fmol cell^-1 min^-1; with R. pomeroyi DSS-3 WT (DMSP concentration 50 µM), 1.852 ± 0.100 fmol cell^-1 min^-1; in the test on R. pomeroyi DSS-3 WT (DMSP concentration 150 µM) it was 2.267 ± 0.189 fmol cell^-1 min^-1; in the test on R. pomeroyi DSS-3 WT (DMSP concentration 300 µM) it was 3.095 ± 0.081 fmol cell^-1 min^-1; in [4] (DMSP concentration 50 µM), 0.946 ± 0.299 fmol cell^-1 min^-1. The Uptake rate in test [4] (DMSP concentration 150 µM) was found to be 1.221 ± 0.159 fmol cell^-1 min^-1; in test [4] (DMSP concentration 300 µM), 1.893 ± 0.084 fmol cell^-1 min^-1. The “restoration of import by complementation with dmpXWV (in words)” value in [4] (complemented mutant versus ΔdmpXWV::Gm) is recorded as “partly restore”.

Usually Kd stands for a measure of binding affinity in units of concentration.

The values above are taken from paper PMC10030565, “Ubiquitous occurrence of a dimethylsulfoniopropionate ABC transporter in abundant marine bacteria” (The ISME Journal, 2023).
